# Laboratory results as given in PubChem BioAssay AID2060499 (Molecular Pharmacology Branch, DTP, NCI, 2025).
# Test system: 777334-354-R2-J4-PDC tumor spheroids with HUVEC/MSC, viability
# Experiment: Anticancer human tumor 777334-354-R2-J4-PDC patient-derived pancreatic adenocarcinoma cell line growth inhibition [GQUAD]
# Conditions: for IC50: curve of first compound; for viability, T/C: stronger effect = lower value
# Summary of the method: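 Viability of tumor cells grown as complex spheroids with endothelial and stromal cells, exposed to drug combinations. Top concentration at or near clinical Cmax (else 10 microM), diluted in half-log increments.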
# [1] = second compound 0.0316 µM, first compound 0.0316 µM
# [2] = second compound 0.0316 µM, first compound 0.1 µM
# [3] = second compound 0.0316 µM, first compound 0.316 µM
# [4] = second compound 0.0316 µM, first compound 1 µM
# [5] = second compound 0.0316 µM, first compound 3.16 µM
# [6] = second compound 0.0316 µM, first compound 10 µM
# [7] = second compound 0.1 µM, first compound 0.0316 µM
# [8] = second compound 0.1 µM, first compound 0.1 µM
# [9] = second compound 0.1 µM, first compound 0.316 µM
# [10] = second compound 0.1 µM, first compound 1 µM
# [11] = second compound 0.1 µM, first compound 3.16 µM
# [12] = second compound 0.1 µM, first compound 10 µM
# [13] = second compound 0.316 µM, first compound 0.0316 µM
# [14] = second compound 0.316 µM, first compound 0.1 µM
# [15] = second compound 0.316 µM, first compound 0.316 µM
# [16] = second compound 0.316 µM, first compound 1 µM
# [17] = second compound 0.316 µM, first compound 3.16 µM
# [18] = second compound 0.316 µM, first compound 10 µM
# [19] = second compound 1 µM, first compound 0.0316 µM
# [20] = second compound 1 µM, first compound 0.1 µM
# [21] = second compound 1 µM, first compound 0.316 µM
# [22] = second compound 1 µM, first compound 1 µM
# [23] = second compound 1 µM, first compound 3.16 µM
# [24] = second compound 1 µM, first compound 10 µM
# [25] = second compound 3.16 µM, first compound 0.0316 µM
# [26] = second compound 3.16 µM, first compound 0.1 µM
# [27] = second compound 3.16 µM, first compound 0.316 µM
# [28] = second compound 3.16 µM, first compound 1 µM
# [29] = second compound 3.16 µM, first compound 3.16 µM
# [30] = second compound 3.16 µM, first compound 10 µM
# [31] = second compound 10 µM, first compound 0.0316 µM
# [32] = second compound 10 µM, first compound 0.1 µM
# [33] = second compound 10 µM, first compound 0.316 µM
# [34] = second compound 10 µM, first compound 1 µM
# [35] = second compound 10 µM, first compound 3.16 µM
# [36] = second compound 10 µM, first compound 10 µM
# 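Further: spheroids exposed to compounds for 7 days before readout.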
smiles,measurement,setting,value
O=c1[nH]cc(F)c(=O)[nH]1 + CN(C)c1ccc(Nc2c3ccc(NC(=O)CCN4CCCC4)cc3nc3cc(NC(=O)CCN4CCCC4)ccc23)cc1,IC50,second compound 0.0316 µM,> 10 µM
same,IC50,second compound 0.1 µM,> 10 µM
same,IC50,second compound 0.316 µM,> 10 µM
same,IC50,second compound 1 µM,> 10 µM
same,IC50,second compound 3.16 µM,> 10 µM
same,IC50,second compound 10 µM,8.21 µM
same,"viability, T/C",[1],91.7%
same,"viability, T/C",[2],92%
same,"viability, T/C",[3],99.9%
same,"viability, T/C",[4],84.2%
same,"viability, T/C",[5],66.7%
same,"viability, T/C",[6],55.3%
same,"viability, T/C",[7],96.8%
same,"viability, T/C",[8],96.8%
same,"viability, T/C",[9],92.3%
same,"viability, T/C",[10],90.7%
same,"viability, T/C",[11],80.3%
same,"viability, T/C",[12],60%
same,"viability, T/C",[13],92.6%
same,"viability, T/C",[14],91%
same,"viability, T/C",[15],96.3%
same,"viability, T/C",[16],87.1%
same,"viability, T/C",[17],72.4%
same,"viability, T/C",[18],54.7%
same,"viability, T/C",[19],99.3%
same,"viability, T/C",[20],88.5%
same,"viability, T/C",[21],82.8%
same,"viability, T/C",[22],70.6%
same,"viability, T/C",[23],65.9%
same,"viability, T/C",[24],55%
same,"viability, T/C",[25],93.2%
same,"viability, T/C",[26],81.6%
same,"viability, T/C",[27],79.2%
same,"viability, T/C",[28],77.8%
same,"viability, T/C",[29],71.1%
same,"viability, T/C",[30],54.2%
same,"viability, T/C",[31],76.6%
same,"viability, T/C",[32],79.1%
same,"viability, T/C",[33],76.8%
same,"viability, T/C",[34],71.4%
same,"viability, T/C",[35],60.9%
same,"viability, T/C",[36],47.7%
CC1COCCN1c1cc(C2(O)CC3CCC(C2)O3)c2cnn(-c3ccn[nH]3)c2n1 (stereo unspecified) + Cc1cnc(CNC(=O)c2c(=O)c3ccc(N4CCCN(C)CC4)nc3n3c2sc2ccccc23)cn1,IC50,second compound 0.0316 µM,0.128 µM
same,IC50,second compound 0.1 µM,0.144 µM
same,IC50,second compound 0.316 µM,0.158 µM
same,IC50,second compound 1 µM,0.13 µM
same,IC50,second compound 3.16 µM,< 0.0316 µM
same,IC50,second compound 10 µM,< 0.0316 µM
same,"viability, T/C",[1],62%
same,"viability, T/C",[2],46.6%
same,"viability, T/C",[3],45.6%
same,"viability, T/C",[4],37.3%
same,"viability, T/C",[5],32.6%
same,"viability, T/C",[6],21.5%
same,"viability, T/C",[7],65.9%
same,"viability, T/C",[8],46.5%
same,"viability, T/C",[9],46.4%
same,"viability, T/C",[10],34.8%
same,"viability, T/C",[11],31.9%
same,"viability, T/C",[12],18.4%
same,"viability, T/C",[13],54.1%
same,"viability, T/C",[14],55%
same,"viability, T/C",[15],46%
same,"viability, T/C",[16],37.1%
same,"viability, T/C",[17],30.6%
same,"viability, T/C",[18],16.5%
same,"viability, T/C",[19],59.7%
same,"viability, T/C",[20],46.1%
same,"viability, T/C",[21],45.6%
same,"viability, T/C",[22],39.7%
same,"viability, T/C",[23],26.4%
same,"viability, T/C",[24],15%
same,"viability, T/C",[25],40.8%
same,"viability, T/C",[26],46.1%
same,"viability, T/C",[27],46.3%
same,"viability, T/C",[28],34.2%
same,"viability, T/C",[29],21.4%
same,"viability, T/C",[30],14.9%
same,"viability, T/C",[31],46.8%
same,"viability, T/C",[32],42.8%
same,"viability, T/C",[33],39%
same,"viability, T/C",[34],29.6%
same,"viability, T/C",[35],18.7%
same,"viability, T/C",[36],11.2%
COc1cccc2c1C(=O)c1c(O)c3c(c(O)c1C2=O)CC(O)(C(=O)CO)CC3OC1CC(N)C(O)C(C)O1 (stereo unspecified) + Cc1cnc(CNC(=O)c2c(=O)c3ccc(N4CCCN(C)CC4)nc3n3c2sc2ccccc23)cn1,IC50,second compound 0.0316 µM,0.878 µM
same,IC50,second compound 0.1 µM,0.769 µM
same,IC50,second compound 0.316 µM,1.04 µM
same,IC50,second compound 1 µM,0.869 µM
same,IC50,second compound 3.16 µM,0.684 µM
same,IC50,second compound 10 µM,0.399 µM
same,"viability, T/C",[1],88.3%
same,"viability, T/C",[2],87.2%
same,"viability, T/C",[3],81.8%
same,"viability, T/C",[4],44.3%
same,"viability, T/C",[5],23.4%
same,"viability, T/C",[6],11.9%
same,"viability, T/C",[7],83.8%
same,"viability, T/C",[8],77.2%
same,"viability, T/C",[9],76.8%
same,"viability, T/C",[10],40.7%
same,"viability, T/C",[11],22.5%
same,"viability, T/C",[12],10.7%
same,"viability, T/C",[13],73.5%
same,"viability, T/C",[14],80.8%
same,"viability, T/C",[15],63.3%
same,"viability, T/C",[16],52.1%
same,"viability, T/C",[17],26.3%
same,"viability, T/C",[18],6.61%
same,"viability, T/C",[19],63%
same,"viability, T/C",[20],70.4%
same,"viability, T/C",[21],67.3%
same,"viability, T/C",[22],45.4%
same,"viability, T/C",[23],21.8%
same,"viability, T/C",[24],4.42%
same,"viability, T/C",[25],64.2%
same,"viability, T/C",[26],64.1%
same,"viability, T/C",[27],68%
same,"viability, T/C",[28],40.9%
same,"viability, T/C",[29],16%
same,"viability, T/C",[30],0.58%
same,"viability, T/C",[31],57.3%
same,"viability, T/C",[32],55.8%
same,"viability, T/C",[33],55.8%
same,"viability, T/C",[34],35.3%
same,"viability, T/C",[35],11.9%
same,"viability, T/C",[36],0.28%
